Source: US8501789B2, “Use of salicylaldehyde isonicotinoyl hydrazone (SIH) for protection against retinal disease” (The Trustees of the University of Pennsylvania, priority 2007, dated 2013)
Where two headings read alike, the source gives them in different places.

Legend:
[1] = system: ARPE-19 cells; assay type: cell-based; settings: for 5 mM H2O2 cytotoxicity: LDH release and Live/Dead
Method: Red indicates dead cells as detected by ethidium bromide homodimer fluorescence. Green indicates live cells as detected by calcein fluorescence;
(§1) Human adult RPE cells (ARPE-19 cell line from ATCC) were cultured until confluent in 24-well Falcon plates in 1:1 DMEM High Glucose with L-Glutamine and Ham's F12 media (Invitrogen, Carlsbad, Calif.) supplemented with 10% FBS (Hyclone, Logan, Utah). For labile iron detection ARPE cells were stably transfected with a pcDNA3.1 plasmid with an IRE-GFP insert (gift of Drs. Sangwon Kim and Sol Snyder, Johns Hopkins) as a reporter for intracellular iron levels. These cells were named iron-reporting ARPE (iRPE) cells. Efficacy of labile iron chelation was tested by adding different concentrations of SIH to the iron-free MEM medium on iRPE cells and assessing decrease in GFP fluorescence as a measure of reduction in intracellular iron levels at the 24 h time point. Epifluorescence microscopy was performed with a Nikon TE-300 microscope (Nikon Inc., Japan) and SpotRT Slider camera (Diagnostic Instruments, Inc., Sterling Heights, Mich.) with ImagePro Plus software, version 4.1 (Media Cybernetics, Silver Spring, Md.).
(§2) To evaluate SIH's cytoprotective properties, SIH at different concentrations was applied to confluent ARPE-19 cells four hrs prior to the addition of H2O2, staurosporine or anti-Fas antibody. Hydrogen peroxide (30% H2O2 from Sigma, St. Louis, Mo.) at final concentration ranging from 1 to 5 mM, Staurosporine (1 mM solution from Sigma) at 100-500 nM final concentration or aFas antibody (Upstate-Millipore, Billerica, Mass.) at 1 μg/mL final concentration were mixed with the indicated concentrations of SIH immediately before applying to ARPE-19 cells. All reagents were dissolved in Minimal Essential Medium (MEM, Invitrogen) as indicated and were applied rapidly and uniformly following two washing steps in HBSS.
Cell death was assayed after 24 hrs using the LDH Release Assay Kit (Roche, Basel, Switzerland). Cytotoxicity was calculated using the ratio between maximum LDH release in 2% Triton X100-treated cells and minimum LDH release in cells incubated in MEM. Visualization of cell death was performed using the LIVE/DEAD Viability/Cytotoxicity kit (Invitrogen).

[2] = system: ARPE-19 cells; assay: Intracellular ROS generation, dihydrorhodamine 123 fluorescence; assay type: cell-based, Human
Method: Level of ROS generation is detected by dihydrorhodamine 123 (green fluorescence) in cells treated with staurosporine and/or 3 μM SIH as indicated. Mitotracker dye (red fluorescence) indicates location of mitochondria; and
Intracellular ROS generation was measured in cultured cells by using the fluorescent probe dihydrorhodamine 123 (DHR123). Mitochondria were localized with Mitotracker Red 580 (Molecular Probes, Eugene, Oreg.). After 30 min of staurosporine exposure with our without SIH, cells were incubated with staurosporine +/−SIH in the presence of 10 μM DHR123 and 2 μM Mitotracker Red 580 at 37° C. for 15 min. DHR fluoresces and localizes to mitochondria when oxidized by ROS to the positively charged rhodamine 123^33. Mitotracker dye passively diffuses across the plasma membrane and specifically accumulates in active mitochondria.
To test whether iron contributes to this ROS production, and whether a decrease in mitochondrial ROS might be a mechanism of SIH protection, ROS were detected with rhodamine 123 after 30 min of staurosporine treatment. In the presence of ROS, non-fluorescent dihydrorhodamine 123 is converted into highly fluorescent rhodamine 123.

[3] = system: ARPE-19 cells; assay: Staurosporine-induced cell death, LDH release and LIVE/DEAD assay; assay type: cell-based, Human
Method: as §2, with “(A) Graph of LDH release following exposure of ARPE-19 cells to varying concentrations of staurosporine. […] (B) Graph of LDH release following exposure of ARPE-19 cells to 200 nM staurosporine plus different concentrations of SIH. […] (C) Fluorescence photomicrograph of cells labeled with the LIVE/DEAD assay following treatment with staurosporine and/or SIH as indicated; To” for “To”, “HBSS. Cell death was assayed after 24 hrs using the LDH Release Assay Kit (Roche, Basel, Switzerland). Cytotoxicity was calculated using the ratio between maximum LDH release in 2% Triton X100-treated cells and minimum LDH release in cells incubated in MEM. Visualization of cell death was performed using the LIVE/DEAD Viability/Cytotoxicity kit (Invitrogen).” for “HBSS.”

[4] = system: ARPE-19 cells; assay: Anti-Fas antibody (aFas)-induced cell death, LDH release assay; assay type: cell-based, Human; settings: SIH beginning 4 hrs before treatment with aFas
Method: All reagents were dissolved in Minimal Essential Medium (MEM, Invitrogen) as indicated and were applied rapidly and uniformly following two washing steps in HBSS. Cell death was assayed after 24 hrs using the LDH Release Assay Kit (Roche, Basel, Switzerland). Cytotoxicity was calculated using the ratio between maximum LDH release in 2% Triton X100-treated cells and minimum LDH release in cells incubated in MEM.

[5] = UV/VIS spectra of SIH, H2O2 and their mixture (chemical interaction); assay type: physicochemical
[6] = system: ARPE-19 cells; assay type: cell-based, Human
[7] = system: ARPE-19 cells that had accumulated A2E; assay: A2E/blue light-induced cell death, MTT assay; assay type: cell-based
Method: Graphs show ARPE-19 cell viability measured by the MTT assay. Increased absorbance indicates increased viability. (A) Cells were incubated with the indicated concentrations of SIH-MEM for 4 h, irradiated with blue light for 20 min in DPBS-SIH, and incubated in MEM-SIH for 24 hr before performing MTT assay. (B) Cells were pre-treated with MEM-SIH for 4 h, irradiated with blue light for 20 min in DPBS and incubated in MEM for 24 h. (C) Cells were irradiated by blue light for 20 min in DPBS and SIH-MEM was applied immediately after irradiation and maintained for 24 hrs. (D) Cells were irradiated with blue light for 20 min in DPBS and SIH-MEM was applied 1 h after irradiation and maintained for 23 h before performing MTT assay. For all graphs, relative to no SIH, * p<0.05, ** p<0.01, *** p<0.001;
For blue light irradiation experiments ARPE-19 cells devoid of endogenous lipofuscin were grown in complete medium (DMEM with 10% fetal calf serum and supplements) as previously described. At confluence the cells were allowed to accumulate A2E from a 10 μM concentration delivered in the culture medium over a 2 week period.
ARPE-19 cells that had accumulated A2E were treated with SIH in MEM for 4 hrs unless otherwise indicated. The SIH/MEM was subsequently exchanged for DPBS, the cells were irradiated at 430 nm for 20 min and then returned to complete medium and incubated for 24 hrs. Variations on this paradigm included experiments in which exposure to SIH/MEM was continued during illumination at 430 nm and for 24 hr thereafter; and experiments in which cells were not pre-incubated with SIH but instead were treated with SIH/MEM beginning either immediately after irradiation and continuing for 24 hrs or beginning 1 hr after irradiation and continuing for 23 hrs. In all experiments controls included A2E-laden irradiated cells that were not treated with SIH, cells that received no treatment (A2E-free, non-irradiated, incubation with MEM in the absence of SIH) and cells treated only with SIH.
In blue light irradiation experiments cell death was assayed by the 3-(4,5-dimethylthiazol-2-yl)-2,5-diphenyltetrazolium bromide assay, a measure of the ability of healthy cells to cleave the yellow tetrazolium salt MTT to purple formazan crystals. Briefly, following the post-illumination incubation described above, 20 uL of MTT labeling reagent (Roche Diagnostics Corp, Indianapolis, Ind.) was added to 0.2 mL of culture medium in each well and after a 4 hr incubation, the labeling reagent was replaced with 200 uL of solubilization solution for an overnight incubation. After centrifugation at 13,000 rpm for 2 min, supernatants were measured spectrophotometrically. A decrease in the absorbance (570 nm) of reduced MTT was indicative of diminished cellular viability.

[8] = system: intracellular labile iron levels in ARPE-19 cells stably transfected with the IRE-GFP reporter (iRPE); assay: Labile iron chelation in IRE-GFP iron-reporting ARPE (iRPE) cells, GFP fluorescence; assay type: cell-based, Human; settings: for GFP fluorescence (labile iron level): iRPE cells, 24 h, iron-free MEM
Method: Fluorescence intensity indicates relative intracellular iron levels. […] Images are representative of results from 3 independent experiments and taken using identical exposure parameters;
as §1, with “Efficacy of labile iron chelation was tested by adding different concentrations of SIH to the iron-free MEM medium on iRPE cells and assessing decrease in GFP fluorescence as a measure of reduction in intracellular iron levels at the 24 h time point.” left out
To quantify the labile iron pool, an iron-reporting RPE cell line (iRPE) was first generated, wherein fluorescence green fluorescent protein reflects labile iron levels. This was accomplished by making a stable cell line with the plasmid IRE-GFP (gift of Sangwon Kim and Sol Snyder). The iron responsive element (IRE) sequence in the 5′ untranslated region of the mRNA is bound by iron regulatory proteins only when labile iron levels are low, leading to inhibition of GFP translation. The fluorescence of iRPE cells treated with different concentrations of SIH for 24 h was determined (FIG. 2).

OO [H2O2, hydrogen peroxide, reference compound]
cell death ([1]; 5 mM H2O2, 24 h, LDH release and Live/Dead assay): 100%

O=C(NN=Cc1ccccc1O)c1ccncc1 [SIH, salicylaldehyde isonicotinoyl hydrazone]
5 mM H2O2 cytotoxicity ([1]; 5 μM SIH before H2O2 and mixed with H2O2, 24 h): completely abolished
5 mM H2O2 cytotoxicity ([1]; 10 μM SIH before H2O2 and mixed with H2O2, 24 h): completely abolished
cytoprotection against H2O2 ([1]; SIH applied 1 h after H2O2 (data not shown)): no protection
cytoprotection against H2O2 ([1]; SIH applied together with H2O2 but without SIH pre-treatment): Diminished cytoprotection
cytoprotection against H2O2 ([1]; SIH pre-incubated with ferric ammonium citrate in a 2:1 molar ratio (data not shown)): no protection
staurosporine-induced rhodamine 123 fluorescence (ROS) ([2]; 3 μM SIH): diminished
cell viability (LDH release) ([3]; SIH 4 h before and through 24 h of 200 nM staurosporine): increased in an SIH concentration-dependent manner
cell viability (LDH release) ([3]; SIH 4 h before and through 24 h of 500 nm staurosporine (not shown)): increased in an SIH concentration-dependent manner
red (dead) cells, live/dead fluorescent imaging ([3]; staurosporine plus 5 μM SIH): very few or none
red (dead) cells, live/dead fluorescent imaging ([3]; staurosporine plus 10 μM SIH): very few or none
SIH concentration of greatest cytoprotective effect ([3]; staurosporine-induced cell death): 10 µM
cell death caused by Fas activation (LDH release) [4]: reduced cell death
changes in spectroscopic properties of SIH-H2O2 mixture compared with SIH and H2O2 alone [5]: did not detect any changes
carbonyl levels in total protein extracts ([6]; H2O2-treated cells, 5 μM SIH, 24 h): did not affect
carbonyl levels in mitochondria-enriched fractions ([6]; cells treated for 24 h with H202, 5 μM SIH): more pronounced decrease
carbonyl levels in mitochondria-enriched fractions ([6]; cells treated for 24 h with staurosporine, 5 μM SIH): more pronounced decrease
carbonyls in total protein extracts ([6]; staurosporine-treated cells, 5 μM SIH, 24 h): small decrease
protection of cell viability (MTT) ([7]; SIH applied 1 hr after light exposure): partial protection
cell viability (MTT) ([7]; SIH before, during, or as late as 1 hr after blue light exposure): cell viability was increased
cell viability (MTT) ([7]; SIH present before, during, and after light exposure): greatest increase in cell viability
SIH-mediated toxicity ([7]; cells incubated with SIH but not exposed to A2E or blue light): No SIH-mediated toxicity
GFP fluorescence (labile iron level) ([8]; 3 μM SIH): decreased significantly
GFP fluorescence (labile iron level) ([8]; 10 μM SIH): decreased significantly
GFP fluorescence (labile iron level) ([8]; 50 μM SIH): close to the level of untreated control
GFP fluorescence (labile iron level) ([8]; 100 μM SIH): close to the level of untreated control
GFP fluorescence (labile iron level) ([8]; 1 mM SIH): decreased slightly
iRPE fluorescence levels ([8]; iron-containing medium DMEM-F12 with 10% fetal calf serum): decreased the fluorescence

CN[C@@H]1C[C@H]2O[C@@](C)([C@@H]1OC)n1c3ccccc3c3c4c(c5c6ccccc6n2c5c31)C(=O)NC4 [staurosporine, reference compound]
fluorescence of rhodamine 123 (ROS) ([2]; 200 nM staurosporine for 30 min, then dihydrorhodamine 123 for 15 min): increased fluorescence
fluorescence of rhodamine 123 (ROS) ([2]; 500 nM staurosporine): greater increase in fluorescence
cell death (LDH release) ([3]; 200 nM staurosporine): significant cell death
cell death (LDH release) ([3]; 500 nM staurosporine): significant cell death
